Common to all, as to type: biochemical
Holding throughout (conditions): labelled compound; histone H1, MBP or casein as phosphoacceptor; 10 µM ATP, Mg/Mn, pH 7.5, 37 °C

Assay [1] has as its target T1, PfCLK-4 (Plasmodium falciparum, UniProt O77306).
T1 construct: gene PF3D7_0302100; endogenous full-length, about 160 kDa, immunoprecipitated from mixed asexual blood stage lysate on protein G-beads
T1 sequence (O77306 1-1338): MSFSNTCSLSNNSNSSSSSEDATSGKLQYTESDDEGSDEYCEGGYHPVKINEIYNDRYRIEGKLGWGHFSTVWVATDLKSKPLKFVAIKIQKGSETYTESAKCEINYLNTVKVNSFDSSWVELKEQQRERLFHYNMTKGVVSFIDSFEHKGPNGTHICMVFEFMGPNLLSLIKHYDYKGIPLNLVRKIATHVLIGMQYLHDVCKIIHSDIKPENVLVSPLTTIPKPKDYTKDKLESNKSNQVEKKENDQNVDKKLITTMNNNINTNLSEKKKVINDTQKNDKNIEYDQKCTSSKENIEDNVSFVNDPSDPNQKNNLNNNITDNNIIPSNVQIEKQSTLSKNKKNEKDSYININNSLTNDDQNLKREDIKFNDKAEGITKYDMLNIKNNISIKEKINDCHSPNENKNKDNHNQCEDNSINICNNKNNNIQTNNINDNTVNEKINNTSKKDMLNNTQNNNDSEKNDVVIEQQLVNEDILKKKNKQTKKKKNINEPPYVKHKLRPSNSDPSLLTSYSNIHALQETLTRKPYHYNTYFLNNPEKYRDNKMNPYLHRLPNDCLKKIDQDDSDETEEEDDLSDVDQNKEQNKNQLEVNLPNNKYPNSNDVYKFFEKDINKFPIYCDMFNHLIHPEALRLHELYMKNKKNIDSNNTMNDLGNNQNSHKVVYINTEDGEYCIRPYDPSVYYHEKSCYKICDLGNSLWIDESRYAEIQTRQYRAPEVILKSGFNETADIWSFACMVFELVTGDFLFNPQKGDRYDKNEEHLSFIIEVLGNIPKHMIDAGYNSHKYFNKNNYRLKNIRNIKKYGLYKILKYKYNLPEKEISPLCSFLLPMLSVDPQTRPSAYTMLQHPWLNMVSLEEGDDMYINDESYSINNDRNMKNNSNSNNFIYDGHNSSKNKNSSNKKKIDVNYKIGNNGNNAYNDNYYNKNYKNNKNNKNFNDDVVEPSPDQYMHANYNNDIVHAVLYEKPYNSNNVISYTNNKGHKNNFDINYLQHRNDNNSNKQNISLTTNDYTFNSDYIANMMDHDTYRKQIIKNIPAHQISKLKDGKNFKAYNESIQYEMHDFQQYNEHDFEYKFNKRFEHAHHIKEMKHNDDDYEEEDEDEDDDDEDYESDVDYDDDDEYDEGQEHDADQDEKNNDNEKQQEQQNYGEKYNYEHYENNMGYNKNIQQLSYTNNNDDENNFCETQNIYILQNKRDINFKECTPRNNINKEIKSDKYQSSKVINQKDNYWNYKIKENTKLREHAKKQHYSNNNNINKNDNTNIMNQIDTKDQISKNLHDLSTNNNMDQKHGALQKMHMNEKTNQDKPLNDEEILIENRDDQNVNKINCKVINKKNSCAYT
Description: radiometric kinase assay of immunoprecipitate, autoradiography.

Assay [2] deals with T2, PfCLK-2 (Plasmodium falciparum, UniProt Q8IL41).
T2 construct: gene PF3D7_1443000; endogenous full-length, about 150 kDa, immunoprecipitated from mixed asexual blood stage lysate on protein G-beads
T2 sequence (Q8IL41 1-1268): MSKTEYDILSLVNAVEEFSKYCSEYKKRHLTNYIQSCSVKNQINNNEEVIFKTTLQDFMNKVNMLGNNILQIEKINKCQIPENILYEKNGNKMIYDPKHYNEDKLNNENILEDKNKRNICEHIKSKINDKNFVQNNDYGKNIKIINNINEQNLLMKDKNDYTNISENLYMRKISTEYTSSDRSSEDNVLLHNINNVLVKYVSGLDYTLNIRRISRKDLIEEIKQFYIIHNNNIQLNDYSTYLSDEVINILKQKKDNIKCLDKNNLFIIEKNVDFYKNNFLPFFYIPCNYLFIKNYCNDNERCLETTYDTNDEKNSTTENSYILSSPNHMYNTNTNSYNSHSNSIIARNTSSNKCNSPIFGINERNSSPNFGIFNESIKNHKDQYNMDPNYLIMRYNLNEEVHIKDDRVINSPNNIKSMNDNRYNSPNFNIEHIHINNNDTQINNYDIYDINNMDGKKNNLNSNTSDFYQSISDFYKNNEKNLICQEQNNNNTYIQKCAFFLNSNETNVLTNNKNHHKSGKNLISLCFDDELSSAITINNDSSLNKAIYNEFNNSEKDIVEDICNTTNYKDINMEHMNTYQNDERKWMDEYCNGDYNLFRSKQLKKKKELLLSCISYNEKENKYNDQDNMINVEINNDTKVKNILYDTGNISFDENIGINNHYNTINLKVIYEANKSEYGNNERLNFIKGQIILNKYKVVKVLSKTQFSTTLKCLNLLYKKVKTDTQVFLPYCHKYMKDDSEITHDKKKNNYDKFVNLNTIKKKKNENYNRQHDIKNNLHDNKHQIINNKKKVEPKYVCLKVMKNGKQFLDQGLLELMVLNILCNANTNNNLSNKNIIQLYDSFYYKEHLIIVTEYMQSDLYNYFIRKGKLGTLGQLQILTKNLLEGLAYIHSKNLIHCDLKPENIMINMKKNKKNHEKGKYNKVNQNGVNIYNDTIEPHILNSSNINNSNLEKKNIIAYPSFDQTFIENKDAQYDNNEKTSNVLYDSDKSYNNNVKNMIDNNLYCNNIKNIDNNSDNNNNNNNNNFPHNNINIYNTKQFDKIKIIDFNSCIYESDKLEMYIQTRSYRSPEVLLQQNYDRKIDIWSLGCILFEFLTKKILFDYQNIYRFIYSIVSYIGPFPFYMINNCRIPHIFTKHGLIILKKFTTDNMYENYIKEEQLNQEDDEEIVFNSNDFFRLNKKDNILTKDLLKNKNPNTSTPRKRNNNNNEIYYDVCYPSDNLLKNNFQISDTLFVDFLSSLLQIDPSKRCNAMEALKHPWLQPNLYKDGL
The assay is described as above.

For assay [3], the target named is T3, PfCLK-3 (Plasmodium falciparum, UniProt Q8IIL5).
T3 construct: gene PF3D7_1114700; endogenous full-length, about 80 kDa, immunoprecipitated from mixed asexual blood stage lysate on protein G-beads
T3 sequence (Q8IIL5 1-699): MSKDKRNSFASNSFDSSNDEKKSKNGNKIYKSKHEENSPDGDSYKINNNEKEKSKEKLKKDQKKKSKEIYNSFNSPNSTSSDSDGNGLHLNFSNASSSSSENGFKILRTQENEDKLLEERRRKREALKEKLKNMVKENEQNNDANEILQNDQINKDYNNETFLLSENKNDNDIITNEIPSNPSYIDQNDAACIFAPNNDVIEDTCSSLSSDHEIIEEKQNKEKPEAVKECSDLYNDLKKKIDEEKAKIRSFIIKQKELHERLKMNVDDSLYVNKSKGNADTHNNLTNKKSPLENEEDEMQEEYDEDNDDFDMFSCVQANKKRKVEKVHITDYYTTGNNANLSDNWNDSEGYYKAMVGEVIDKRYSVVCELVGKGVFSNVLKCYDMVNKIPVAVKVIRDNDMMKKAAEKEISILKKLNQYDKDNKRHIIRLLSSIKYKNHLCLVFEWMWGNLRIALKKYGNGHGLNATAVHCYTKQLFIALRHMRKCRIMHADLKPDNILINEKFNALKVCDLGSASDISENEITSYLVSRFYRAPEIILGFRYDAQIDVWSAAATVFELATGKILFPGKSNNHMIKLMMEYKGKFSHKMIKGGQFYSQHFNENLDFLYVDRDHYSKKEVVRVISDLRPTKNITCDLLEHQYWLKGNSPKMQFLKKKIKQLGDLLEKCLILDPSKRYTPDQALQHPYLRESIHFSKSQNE
The assay is described as above.

The target in assay [4] is T4, PfPK6 (Plasmodium falciparum, UniProt O77239).
T4 construct: gene PK6; recombinant His6-tagged, purified as previously reported
T4 sequence (O77239 1-305): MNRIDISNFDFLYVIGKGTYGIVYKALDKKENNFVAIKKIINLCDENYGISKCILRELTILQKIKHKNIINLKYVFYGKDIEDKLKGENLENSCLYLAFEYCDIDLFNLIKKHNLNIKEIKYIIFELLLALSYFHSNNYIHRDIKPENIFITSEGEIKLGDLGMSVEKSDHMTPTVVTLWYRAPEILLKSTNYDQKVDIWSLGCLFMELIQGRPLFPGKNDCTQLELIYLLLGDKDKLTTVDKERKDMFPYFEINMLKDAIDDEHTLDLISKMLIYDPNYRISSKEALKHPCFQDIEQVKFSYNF
Nature of the assay: radiometric kinase assay, autoradiography.

In the case of `Nc1ncnc2c1ncn2[C@@H]1O[C@H](COP(=O)(O)OP(=O)(O)OP(=O)(O)O)[C@@H](O)[C@H]1O` [ATP], the “radiometric kinase assay of immunoprecipitate, autoradiography” value in assay [1], in assay [2] and in assay [3] was “All PfCLKs were associated with phosphorylation activity of all three substrates” in each case. Moreover, in assay [4], the “radiometric kinase assay, autoradiography” value is reported as “also exhibited strong phosphorylation activity of the three exogenous substrates”.

For the origin of these results see PMC4154858, “Inhibition of the SR Protein-Phosphorylating CLK Kinases of Plasmodium falciparum Impairs Blood Stage Replication and Malaria Transmission” (PLoS ONE, 2014).
